Data reported in patent publication US11066369B2, “N-(pyridin-2-yl)pyridine-sulfonamide derivatives and their use in the treatment of disease” (Novartis AG, priority 2016, dated 2021).
Where a name gives a salt, the structure may show the parent alone.

Key:
[1] = target: T1, horseradish peroxidase (HRP) tagged delF508-CFTR (Homo sapiens, UniProt P13569, DEL508-508); experiment: Measurement of delF508-CFTR-HRP surface expression in CFBE41o- cells; type: cell-based; details: delF508-CFTR-HRP surface expression, CFBE41o- cells; for Emax: read-out: DelF508-CFTR-HRP Amax %; for EC50: read-out: DelF508-CFTR-HRP EC50;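 for DelF508-CFTR-HRP Amax %: percent efficacy relative to reference corrector lumacaftor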
T1 construct: expressed in transfected cells
How it was run: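 CFBE41o- bronchial epithelial cells stably expressing delF508-CFTR with HRP in the fourth extracellular loop; expression induced 48h with 500 ng/mL doxycycline, then compounds added (top 10 μM, 10-point 3-fold series, ≤0.5% DMSO) for 24h at 37° C. Surface HRP measured by luminescence with cell-impermeant substrate; EC50 from logistic fit of triplicates, plate-normalized to lowest concentration; efficacy also relative to a reference corrector.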

delF508-CFTR = target: T2, delF508-CFTR (Homo sapiens, UniProt P13569, DEL508-508); experiment: Measurement of delF508-CFTR functional activity in primary human bronchial epithelial cells (HBECs) using Multi-Transepithelial Clamp Circuit (MTECC-24) assay; type: cell-based; details: primary CF HBECs; for MTECC24 CFHBEC- Amax %: test compound added 24h before assay plus potentiator, relative to reference combination (2 μM corrector + 0.5 μM potentiator); for EC50: test compound added 24h before assay, in the presence of potentiator, mean of at least two replicates, read-out: MTECC24 CFHBEC- EC50
T2 construct: functional activity of the CFTR channel (Chloride ion transport) in patient derived primary human bronchial epithelial cells; host or cells: patient-derived primary human bronchial epithelial cells (delF508-CFTR)
How it was run: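 Patient-derived primary delF508-CFTR HBECs, differentiated at air-liquid interface ~2 weeks, treated basolaterally with compound for 24 h, then apical and basolateral compound in HEPES pH 7.4 assay medium. Equivalent short-circuit current (Ieq) recorded on MTECC-24 with sequential amiloride, forskolin, potentiator and INH-172; normalized to 0.1% DMSO, EC50 from curve fit.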

T2 sequence (P13569 with tags, fused parts or gaps DEL508-508): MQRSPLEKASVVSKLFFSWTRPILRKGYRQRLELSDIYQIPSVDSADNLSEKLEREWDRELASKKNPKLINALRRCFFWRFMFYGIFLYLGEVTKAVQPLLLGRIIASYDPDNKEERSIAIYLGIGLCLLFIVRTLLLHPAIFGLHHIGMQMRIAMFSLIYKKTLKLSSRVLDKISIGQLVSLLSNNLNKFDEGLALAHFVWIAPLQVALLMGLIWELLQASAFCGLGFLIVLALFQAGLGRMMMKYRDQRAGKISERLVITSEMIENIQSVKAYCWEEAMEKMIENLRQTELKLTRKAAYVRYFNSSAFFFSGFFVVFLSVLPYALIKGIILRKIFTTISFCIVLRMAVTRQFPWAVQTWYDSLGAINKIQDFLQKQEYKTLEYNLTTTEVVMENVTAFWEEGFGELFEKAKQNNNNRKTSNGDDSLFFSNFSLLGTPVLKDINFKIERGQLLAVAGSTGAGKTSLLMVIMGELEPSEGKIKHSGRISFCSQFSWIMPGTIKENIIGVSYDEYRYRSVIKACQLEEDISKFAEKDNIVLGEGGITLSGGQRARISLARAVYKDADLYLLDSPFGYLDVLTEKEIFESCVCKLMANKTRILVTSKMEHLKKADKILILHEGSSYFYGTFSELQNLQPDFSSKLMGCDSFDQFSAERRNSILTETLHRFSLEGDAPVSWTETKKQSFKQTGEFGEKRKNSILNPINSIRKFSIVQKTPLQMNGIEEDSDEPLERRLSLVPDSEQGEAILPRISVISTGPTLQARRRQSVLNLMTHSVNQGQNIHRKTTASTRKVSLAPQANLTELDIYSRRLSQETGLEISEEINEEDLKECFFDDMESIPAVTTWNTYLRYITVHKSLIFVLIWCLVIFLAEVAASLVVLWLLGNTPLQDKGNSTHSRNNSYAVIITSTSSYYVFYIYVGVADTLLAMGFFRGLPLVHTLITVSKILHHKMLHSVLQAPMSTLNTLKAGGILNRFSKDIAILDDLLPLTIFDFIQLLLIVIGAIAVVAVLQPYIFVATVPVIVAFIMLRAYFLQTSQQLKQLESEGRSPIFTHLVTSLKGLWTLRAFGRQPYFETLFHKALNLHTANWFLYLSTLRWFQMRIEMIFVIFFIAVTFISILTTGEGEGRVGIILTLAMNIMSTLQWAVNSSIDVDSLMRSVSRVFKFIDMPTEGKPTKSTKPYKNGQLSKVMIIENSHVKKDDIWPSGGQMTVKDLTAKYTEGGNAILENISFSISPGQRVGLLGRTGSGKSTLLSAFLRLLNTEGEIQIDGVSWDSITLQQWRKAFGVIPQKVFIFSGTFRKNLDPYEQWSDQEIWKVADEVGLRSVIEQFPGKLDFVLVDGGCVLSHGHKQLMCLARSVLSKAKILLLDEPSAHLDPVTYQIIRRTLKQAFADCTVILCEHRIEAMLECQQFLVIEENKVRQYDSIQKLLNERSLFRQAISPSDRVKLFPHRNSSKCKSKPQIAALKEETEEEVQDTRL
T1 sequence (P13569 with tags, fused parts or gaps DEL508-508): as above

Row | SMILES | Emax [1] [%] | EC50 [1] [nM] | MTECC24 CFHBEC- Amax % (delF508-CFTR) [%] | EC50 (delF508-CFTR) [nM]
1 | Cc1ccc(OC(F)(F)F)cc1-c1nc(NS(=O)(=O)c2cccc(N)n2)ccc1Cl [Example 89, 6-amino-N-(5-chloro-6-(2-methyl-5-(trifluoromethoxy)phenyl)pyridin-2-yl)pyridine-2-sulfonamide] | 91.5 | 3860 | 35.7 | 39.9
2 | Cc1ccccc1-c1nc(NS(=O)(=O)c2cccc(N3CCC[C@@H](N)C3)n2)ccc1C(F)(F)F [Example 102, (R)-6-(3-aminopiperidin-1-yl)-N-(6-(o-tolyl)-5-(trifluoromethyl)pyridin-2-yl)pyridine-2-sulfonamide Hydrochloride] | 577 | 3280 | 54.3 | 136
3 | Cc1ccccc1-c1nc(NS(=O)(=O)c2cccc(N3CCC[C@H](N)C3)n2)ccc1C(F)(F)F [Example 103, (S)-6-(3-aminopiperidin-1-yl)-N-(6-(o-tolyl)-5-(trifluoromethyl)pyridin-2-yl)pyridine-2-sulfonamide Hydrochloride] | 370 | 2970 | 67.8 | 94.8
4 | Cc1ccccc1-c1nc(NS(=O)(=O)c2cccc(N[C@@H]3CCCNC3)n2)ccc1C(F)(F)F [Example 104, (R)-6-(piperidin-3-ylamino)-N-(6-(o-tolyl)-5-(trifluoromethyl)pyridin-2-yl)pyridine-2-sulfonamide Hydrochloride] | – | 2140 | 73.4 | 24.5
5 | Cc1ccccc1-c1nc(NS(=O)(=O)c2cccc(N[C@H]3CCCNC3)n2)ccc1C(F)(F)F [Example 105, (S)-6-(piperidin-3-ylamino)-N-(6-(o-tolyl)-5-(trifluoromethyl)pyridin-2-yl)pyridine-2-sulfonamide Hydrochloride] | 310 | 3190 | 58.1 | 222
6 | CO[C@H]1CCNC[C@H]1Nc1cccc(S(=O)(=O)Nc2ccc(C(F)(F)F)c(-c3ccccc3C)n2)n1 [Example 106, 6-(((3R,4S)-4-methoxypiperidin-3-yl)amino)-N-(6-(o-tolyl)-5-(trifluoromethyl)pyridin-2-yl)pyridine-2-sulfonamide Hydrochloride] | 912 | 2580 | 106.4 | 79.5
7 | Cc1ccccc1-c1nc(NS(=O)(=O)c2cccc(N3CC4C(N)C4C3)n2)ccc1C(F)(F)F (centres unmarked) [Example 107, 6-(6-amino-3-azabicyclo[3.1.0]hexan-3-yl)-N-(6-(o-tolyl)-5-(trifluoromethyl)pyridin-2-yl)pyridine-2-sulfonamide Hydrochloride] | 756 | 1990 | 72.2 | 111
8 | Cc1ccccc1-c1nc(NS(=O)(=O)c2cccc(N3CCC(N)CC3)n2)ccc1C(F)(F)F [Example 108, 6-(4-aminopiperidin-1-yl)-N-(6-(o-tolyl)-5-(trifluoromethyl)pyridin-2-yl)pyridine-2-sulfonamide Hydrochloride] | 336 | 4070 | 61.4 | 54.9
9 | CNC1CCN(c2cccc(S(=O)(=O)Nc3ccc(C(F)(F)F)c(-c4ccccc4C)n3)n2)CC1 [Example 109, 6-(4-(methylamino)piperidin-1-yl)-N-(6-(o-tolyl)-5-(trifluoromethyl)pyridin-2-yl)pyridine-2-sulfonamide Hydrochloride] | 332 | 2680 | 84.9 | 170
10 | Cc1ccccc1-c1nc(NS(=O)(=O)c2cccc(N3CCC(C)(N)CC3)n2)ccc1C(F)(F)F [Example 110, 6-(4-amino-4-methylpiperidin-1-yl)-N-(6-(o-tolyl)-5-(trifluoromethyl)pyridin-2-yl)pyridine-2-sulfonamide Hydrochloride] | 372 | 2800 | 65.6 | 28
11 | Cc1ccccc1-c1nc(NS(=O)(=O)c2cccc(NC3CCNCC3)n2)ccc1C(F)(F)F [Example 112, 6-(piperidin-4-ylamino)-N-(6-(o-tolyl)-5-(trifluoromethyl)pyridin-2-yl)pyridine-2-sulfonamide Hydrochloride] | 172 | 4050 | 55.0 | 495
12 | Cc1ccccc1-c1nc(NS(=O)(=O)c2cccc(N3C[C@H](O)[C@@H](N4CCCC4)C3)n2)ccc1C(F)(F)F [Example 118, 6-((3′S,4'S)-4′-hydroxy-[1,3′-bipyrrolidin]-1′-yl)-N-(6-(o-tolyl)-5-(trifluoromethyl)pyridin-2-yl)pyridine-2-sulfonamide] | 492 | 2600 | 78.5 | 11.7
13 | Cc1ccccc1-c1nc(NS(=O)(=O)c2cccc(N3CC[C@@H](N)C3)n2)ccc1C(F)(F)F [Example 119, (R)-6-(3-aminopyrrolidin-1-yl)-N-(6-(o-tolyl)-5-(trifluoromethyl)pyridin-2-yl)pyridine-2-sulfonamide Hydrochloride] | 411 | 1830 | 70.2 | 55.3
14 | Cc1ccccc1-c1nc(NS(=O)(=O)c2cccc(N3CC[C@H](N)C3)n2)ccc1C(F)(F)F [Example 120, (S)-6-(3-aminopyrrolidin-1-yl)-N-(6-(o-tolyl)-5-(trifluoromethyl)pyridin-2-yl)pyridine-2-sulfonamide Hydrochloride] | 270 | 2820 | 57.9 | 37.2
15 | CN[C@@H]1CCN(c2cccc(S(=O)(=O)Nc3ccc(C(F)(F)F)c(-c4ccccc4C)n3)n2)C1 [Example 121, (R)-6-(3-(methylamino)pyrrolidin-1-yl)-N-(6-(o-tolyl)-5-(trifluoromethyl)pyridin-2-yl)pyridine-2-sulfonamide Hydrochloride] | 308 | 3450 | 79.6 | 164
16 | CN[C@H]1CCN(c2cccc(S(=O)(=O)Nc3ccc(C(F)(F)F)c(-c4ccccc4C)n3)n2)C1 [Example 122, (S)-6-(3-(methylamino)pyrrolidin-1-yl)-N-(6-(o-tolyl)-5-(trifluoromethyl)pyridin-2-yl)pyridine-2-sulfonamide Hydrochloride] | 385 | 2690 | 81.8 | 27.1
17 | Cc1ccccc1-c1nc(NS(=O)(=O)c2cccc(N[C@@H]3CCNC3)n2)ccc1C(F)(F)F [Example 123, (R)-6-(pyrrolidin-3-ylamino)-N-(6-(o-tolyl)-5-(trifluoromethyl)pyridin-2-yl)pyridine-2-sulfonamide Hydrochloride] | 218 | 3150 | 85.2 | 238
18 | O=S(=O)(Nc1ccc(Cl)c(-c2ccccc2C(F)(F)F)n1)c1cccc(N[C@H]2COC[C@@H]2O)n1 [Example 125, N-(5-chloro-6-(2-(trifluoromethyl)phenyl)pyridin-2-yl)-6-(((3S,4R)-4-hydroxytetrahydrofuran-3-yl)amino)pyridine-2-sulfonamide] | 215 | 1940 | 67.5 | 47.5
19 | Cc1ccc(F)cc1-c1nc(NS(=O)(=O)c2cccc(N[C@@H]3COC[C@H]3O)n2)ccc1Cl [Example 127, N-(5-chloro-6-(5-fluoro-2-methylphenyl)pyridin-2-yl)-6-(((3R,4S)-4-hydroxytetrahydrofuran-3-yl)amino)pyridine-2-sulfonamide] | 382 | 2320 | 45.4 | 15.7
20 | Cc1ccc(F)cc1-c1nc(NS(=O)(=O)c2cccc(N[C@@H]3[C@H](CO)[C@H]4CC[C@@H]3O4)n2)ccc1Cl [Example 128, N-(5-chloro-6-(5-fluoro-2-methylphenyl)pyridin-2-yl)-6-(((1S,2R,3R,4R)-3-(hydroxymethyl)-7-oxabicyclo[2.2.1]heptan-2-yl)amino)pyridine-2-sulfonamide] | 730 | 2240 | 61.9 | 5.3
21 | Cc1cccc(C)c1-c1nc(NS(=O)(=O)c2cccc(O[C@H]3CC[C@@H](C(=O)O)CC3)n2)ccc1Cl [Example 129, (1s,4s)-4-((6-(N-(5-chloro-6-(2,6-dimethylphenyl)pyridin-2-yl)sulfamoyl)pyridin-2-yl)oxy)cyclohexane-1-carboxylic Acid] | – | 1720 | 54.8 | 19.5
22 | Cc1cccc(C)c1-c1nc(NS(=O)(=O)c2cccc(O[C@H]3CC[C@H](C(=O)O)CC3)n2)ccc1Cl [Example 130, (1r,4r)-4-((6-(N-(5-chloro-6-(2,6-dimethylphenyl)pyridin-2-yl)sulfamoyl)pyridin-2-yl)oxy)cyclohexane-1-carboxylic Acid] | 157 | 2920 | 37.9 | 84.1
